Columns and labels:
[1] = tested on: dually perfused human placental lobule
placenta = details: cited from earlier work

Cc1cc(=O)n(-c2ccccc2)n1C [Antipyrine, antipyrine]
effect of HSA, AAG or their combination in the perfusion medium on transfer of AP across the placental lobule ([1]; HSA, AAG, or their combination): not affected | Antipyrine Fetal/Maternal concentration ratio ([1]; human, 20 µg/mL): 0.84 ± 0.11

COc1ccc(Cl)cc1C(=O)NCCc1ccc(S(=O)(=O)NC(=O)NC2CCCCC2)cc1 [glyburide]
fetal/maternal concentration ratio in presence of HSA versus absence of the protein (placenta): significantly lower
